According to PubChem BioAssay (NCI):
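Results reflect a 48-hour exposure of cells in 96-well plates to compound at five concentrations. GI50: concentration for 50% inhibition of growth. TGI denotes the concentration required for complete inhibition of growth.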

Assays:
Assay in all cases: NCI anticancer screen, dose series, 48 h
A549 NSCLC = tested on: A549 NSCLC
COLO 205 colon = tested on: COLO 205 colon
HL-60(TB) leukemia = tested on: HL-60(TB) leukemia
HOP-62 NSCLC = tested on: HOP-62 NSCLC
MDA-MB-435 = tested on: MDA-MB-435
PC-3 prostate = tested on: PC-3 prostate
SF-539 CNS = tested on: SF-539 CNS
SNB-75 CNS = tested on: SNB-75 CNS
LXFL 529 NSCLC = tested on: LXFL 529 NSCLC
M19-MEL melanoma = tested on: M19-MEL melanoma

| SMILES | GI50 (A549 NSCLC) [nM] | TGI (A549 NSCLC) [µM] | GI50 (COLO 205 colon) [µM] | TGI (COLO 205 colon) [µM] | GI50 (HL-60(TB) leukemia) [nM] | TGI (HL-60(TB) leukemia) [µM] | GI50 (HOP-62 NSCLC) [µM] | TGI (HOP-62 NSCLC) [µM] | GI50 (MDA-MB-435) [nM] | TGI (MDA-MB-435) [µM] | GI50 (PC-3 prostate) [nM] | TGI (PC-3 prostate) [µM] | GI50 (SF-539 CNS) [µM] | TGI (SF-539 CNS) [µM] | GI50 (SNB-75 CNS) [µM] | TGI (SNB-75 CNS) [µM] | TGI (LXFL 529 NSCLC) [µM] | TGI (M19-MEL melanoma) [µM] | GI50 (LXFL 529 NSCLC) [µM] | GI50 (M19-MEL melanoma) [µM] |
| --- | --- | --- | --- | --- | --- | --- | --- | --- | --- | --- | --- | --- | --- | --- | --- | --- | --- | --- | --- | --- |
| NC(=NCc1ccccc1)C(N=Nc1ccccc1)C(=O)NCc1ccccc1 (stereo not drawn) | 3050 | 10.1 | 14.8 | 37.2 | 4640 | 27.4 | 12.6 | 29.6 | 5510 | 25.5 | 1840 | 4.02 | 16.6 | 37.1 | 13.2 | 27.7 |  |  |  |  |
| N#CC(/C(CCC(=O)Nc1ccc(Cl)cc1)=N/NC(=O)c1cc2ccccc2cc1O)c1ccccc1 (stereo not drawn) |  | > 100 |  | > 100 |  | 33 |  | 85.3 |  |  |  |  |  |  |  | > 100 | > 100 | > 100 |  |  |
| CN(C)CCCN(CCC1CCCCC1)CCC1CCCCC1 | 2690 | 8.5 | 1.48 | 3.36 | 2090 | 9.88 | 6.06 | 16.3 | 1350 | 3.03 | 4470 | 17.9 | 1.68 | 3.16 | 1.8 | 6.5 |  |  |  |  |
| O=c1oc2ccc(I)cc2c(=O)n1-c1ccc(F)cc1F | 2930 | 19.8 | 3.39 | 13.1 | 2040 | 5.12 | 2.16 | 6.09 | 2870 | 9.18 | 2240 | 6.94 | 2.79 | 9.51 | 1.26 | 3.96 |  |  |  |  |
| N.N.N.N.N.NC(=O)[O-].[Co+3].[I-] | > 100000 | > 100 | > 100 | > 100 |  |  | > 100 | > 100 |  |  |  |  | > 100 | > 100 | 18.7 | > 100 | > 100 |  | > 100 |  |
| CC(C)N(O)C(=N)c1ccccc1 |  | > 100 |  |  |  | > 100 |  | > 100 |  |  |  |  |  | > 100 |  | > 100 | > 100 | > 100 |  |  |
| COc1cc(OC)c(C(=O)c2cccs2)cc1N |  | > 100 |  | > 100 |  |  |  | > 100 |  |  |  |  |  | > 100 |  | > 100 | > 100 | > 100 |  |  |
| CC(CC(=O)N1C(=O)C(C)(C)[C@@H](O)[C@H]1CC(C)C(Cl)(Cl)Cl)C(Cl)(Cl)Cl (stereo partly drawn) |  | > 100 |  | > 100 |  | > 100 |  | > 100 |  |  |  |  |  | > 100 |  | > 100 | > 100 | > 100 |  |  |
| CO[C@H]1C=CO[C@@]2(C)Oc3c(C)c(O)c4c(O)c(c(CN5CCN(C)CC5)c(O)c4c3C2=O)NC(=O)/C(C)=C\C=C[C@H](C)[C@H](O)C(C)[C@@H](O)C(C)[C@H](OC(C)=O)[C@@H]1C (stereo partly drawn) |  | > 100 |  | 25.2 |  | 83.7 |  | > 100 |  | > 60.8 |  | > 100 |  | > 68.5 |  | > 100 |  |  |  |  |
| CC1=C2CC(C)(C)/C=C\C(=O)/C(C)=C\C3=C[C@H](C)C[C@]3(O2)C1=O |  | 15.5 |  | 9.27 |  | 2.43 |  | 15.9 |  | 1.66 |  | 7.09 |  | 3.09 |  | 12.2 |  |  |  |  |
| CC1(C)S[C@@H]2[C@H](N3C(=O)c4ccccc4C3=O)CN2[C@H]1NC(=O)N[C@@H]1N2C[C@@H](N3C(=O)c4ccccc4C3=O)[C@H]2SC1(C)C |  | > 100 |  | > 100 |  | > 100 |  | > 100 |  | > 100 |  | > 100 |  | > 100 |  | > 100 |  |  |  |  |
| O=C/C1=C/C2=Cc3ccccc3C=C(/C=C(/C=O)C1)C2 |  | > 100 |  | > 100 |  | > 100 |  | > 100 |  |  |  |  |  | > 100 |  | 80 | > 100 | > 100 |  |  |
| CCC(=O)N1C(=O)OCC1C(C)C (stereo not drawn) |  | > 100 |  | > 100 |  | > 100 |  | > 100 |  |  |  |  |  | > 100 |  | > 100 | > 100 | > 100 |  |  |
| O=S(=O)([O-])c1ccc(N=Cc2ccccc2[O-])cc1.O=S(=O)([O-])c1ccc(N=Cc2ccccc2[O-])cc1.[Co+2] | > 100000 | > 100 | > 100 | > 100 | 40100 | > 100 |  |  |  |  |  |  | 84 | > 100 | > 100 | > 100 |  | > 100 |  | 76.5 |
| COc1cc(/C=C(\NC(=O)c2ccccc2)c2nc3ccc4c(c3[nH]2)C(=O)c2ccccc2C4=O)cc(OC)c1OC |  | > 100 |  | > 100 |  |  |  | > 100 |  |  |  |  |  | > 100 |  | 75.3 | > 100 | > 100 |  |  |
| O=C1/C=C/[C@@H](O)[C@@H]2C[C@@H](O)C[C@H]2/C=C/CCC[C@H](CCc2cccc3ccccc23)O1 | 41.1 | 13.2 | 0.0659 | 0.152 | 92.3 | 0.366 | 0.0713 | 11.8 | 39.4 | 3.43 | 65 | 12 | 0.121 | 16.3 | 0.0358 | 14.5 |  |  |  |  |
| C=C(CN1CCN(c2ccc(C(F)(F)F)cc2)CC1)c1ccc(C(=O)Nc2ccccc2N)cc1 | 6430 | 45.5 | > 100 | > 100 | 73.2 | 0.279 | 8.38 | > 45 | > 25200 | > 100 | 1290 | > 65.7 | 8.15 | > 100 | 12.4 | 51.8 |  |  |  |  |
| C=C1CC2(CC(c3ccccc3Cl)OC(c3ccccc3Cl)C2)OC1=O (stereo not drawn) |  | 21.2 |  | 5.51 |  | 12.1 |  | 21.1 |  | 3.51 |  | 6.84 |  | 4.27 |  | 8.41 |  |  |  |  |
| O=C(O)[C@H](Cc1c[nH]c2ccccc12)N1C(=O)c2ccccc2C1=O |  | > 100 |  | > 100 | > 100000 | > 100 |  | > 100 |  | > 100 |  | > 100 |  | > 100 |  | > 100 |  |  |  |  |
| CC/C=C\C[C@H](F)C/C=C1/C(=O)C=C[C@@H]1C/C=C\CCCC(=O)OC | 1990 | 10.5 | 1.22 | 2.72 | 1520 | 6.29 | 1.45 | 3.45 | 1250 | 3.37 | 1740 | 5.7 | 4.26 | 11.2 | 5.64 | 11.7 |  |  |  |  |
